Measurements as given in patent publication US5236927A, “Anti-cancer quinazoline derivatives” (National Research Development Corporation, priority 1985, dated 1993).
Where “and” joins values, the source holds several entries; their conditions need not be identical. Equal values may be shown once. Read-outs that look alike come from different tables or passages of the source.

What was measured:
[1] = Comparative pharmacokinetics in the mouse (plasma, liver, kidney levels); assay type: in vivo; settings: for concentration at 3 h / concentration at 6 h: plasma, ip, read-out: Plasma quinazoline conc.
Description: 3 Hours and 6 hours after administration groups of three mice at each dose level were sacrificed by exsanguination via cardiac puncture. Plasma was prepared and the livers and kidneys excised and weighed.

[2] = Toxicity and weight loss in treated L1210 tumour-bearing mice; assay type: in vivo, mouse
Description: (§1) The L1210 tumour is carried routinely in DBA2 mice at the Institute of Cancer Research (L1210/CBRI). For experiments 5×10^4 cells were implanted i.p. into male C57Bl×DBA2 F1 hybrid mice 3 days prior to treatment. […] The control group consisted of 9 mice and treated groups 6 or 7 mice.

Pharmacokinetics in rats = settings: 100 mg/kg 1 h i.v. infusion; for concentration: read-out: Plasma levels
Description: (§2) During and after the infusion blood and bile samples were collected. Four hours after the experiment the rats were sacrificed and the urine collected from the bladder and the liver and kidneys removed.
(§3) Samples of plasma were also analysed for alanine transaminase.

L1210 tumour = assay: Treatment of L1210 tumour-bearing mice; assay type: in vivo, mouse
Description: as §1

alanine transaminase [3] = assay: Hepatotoxicity in rats (plasma alanine transaminase); settings: 100 mg/kg 1 h i.v. infusion
Description: as §2, §3

alanine transaminase [4] = settings: rat, in vivo
Description: as §2, §3

L1210 cells = assay: Reversal of L1210 toxicity by co-incubation with thymidine; assay type: cell-based
Description: Cells in the log phase of growth were diluted to about 5×10^4 /ml and duplicate 5ml aliquots were added to 50 ml tissue culture flasks containing the appropriate additions (diluted in RPMI and sterilised by Millipore filtration). Cell counts after 48 hours of incubation were obtained by Coulter counting.

[5] = Urinary and faecal elimination in the mouse; assay type: in vivo; settings: 100 mg/kg i.p.; for dose excreted at 48 h: ip, 0-48 h
L1210/C15 cells = assay: L1210/C15 cell culture growth inhibition (overproduces TS 45-fold); assay type: cell-based; settings: 48 hours; at 100 uM
Description: Cell counts after 48 hours of incubation were obtained by Coulter counting.

[6] = test system: de novo thymidylate synthesis in L1210 cells; assay: Incorporation of 3H dUrd into acid-precipitable material in L1210 cells; assay type: cell-based; settings: Mus musculus, L1210, 10 min; 10 uM, by about 10 minutes
Description: L1210 cells were used at a concentration of 10^5 /ml. Incubation at 37° C. was in complete RPMI tissue culture medium plus or minus drugs for the lengths of time indicated on the graphs. After this time ^3 H dUrd was added at a concentration of 2 uCi/ml (about 0.2 uM). Three 1 ml aliquots were removed after 20 minutes, placed on ice and mixed with 1 ml of ice-cold phosphate buffered saline (PBS). Precipitation onto glass-fibre discs was performed by trichloroacetic acid washing followed by PBS. […] This is an indirect measurement of de novo thymidylate synthesis in whole cells. […] These concentrations are 10 times the ID50 values.

alanine transaminase [7] = assay: Comparative hepatotoxicity in the mouse (plasma alanine transaminase); assay type: in vivo
Description: […]. Plasma was prepared and the livers and kidneys excised and weighed.
Samples of plasma were also analysed for the enzyme alanine transaminase, an indicator of hepatotoxicity. […]

[8] = 100 mg/kg i.p., 3 h post-treatment
[9] = 100 mg/kg i.p., 6 h post-treatment
[10] = 300 mg/kg i.p., 3 h post-treatment
[11] = 300 mg/kg i.p., 6 h post-treatment
[12] = 500 mg/kg i.p., 3 h post-treatment
[13] = 500 mg/kg i.p., 6 h post-treatment
[14] = compound 5 uM + 10 uM thymidine

C#CCN(Cc1ccc2nc[nH]c(=O)c2c1)c1ccc(C(=O)N[C@@H](CCC(=O)O)C(=O)O)cc1 [CB3804, N-(4-(N-((3,4-dihydro-4-oxo-6-quinazolinyl)methyl)prop-2-ynylamino)benzoyl)-L-glutamic acid]
Kidney quinazoline level [1, 8]: < 0.1 % dose administered | Liver quinazoline level [1, 8]: < 0.1 % dose administered | Kidney quinazoline level [1, 9]: < 0.1 % dose administered | Liver quinazoline level [1, 9]: < 0.1 % dose administered | Kidney quinazoline level [1, 10]: < 0.03 % dose administered | Liver quinazoline level [1, 10]: < 0.03 % dose administered | Kidney quinazoline level [1, 11]: < 0.03 % dose administered | Liver quinazoline level [1, 11]: < 0.03 % dose administered | Kidney quinazoline level [1, 12]: < 0.1 % dose administered | Liver quinazoline level [1, 12]: < 0.2 % dose administered | Kidney quinazoline level [1, 13]: < 0.1 % dose administered | Liver quinazoline level [1, 13]: < 0.2 % dose administered | detection in plasma, liver and kidneys ([1]; mice, 3 and 6 hours after i.p. dose, for CB3804 except plasma 3 h at 500 mg/kg): below the limit of detection | accumulation in the kidneys ([1]; mouse, in vivo): does not apparently accumulate in the kidneys | concentration at 3 h ([1]; mouse, 100 mg/kg i.p., 3 h post-treatment): < 5 µM | concentration at 6 h ([1]; mouse, 100 mg/kg i.p., 6 h post-treatment): < 5 µM | concentration at 3 h ([1]; mouse, 300 mg/kg i.p., 3 h post-treatment): < 5 µM | concentration at 6 h ([1]; mouse, 300 mg/kg i.p., 6 h post-treatment): < 5 µM | concentration at 3 h ([1]; mouse, 500 mg/kg i.p., 3 h post-treatment): 5 µM | concentration at 6 h ([1]; mouse, 500 mg/kg i.p., 6 h post-treatment): < 5 µM | signs of toxicity ([2]; 200 mg/kg i.p. daily ×5): no obvious signs of toxicity | weight loss ([2]; 200 mg/kg i.p. daily ×5): no weight loss occurred | signs of toxicity ([2]; dose levels up to 200 mg/kg): No signs of toxicity were apparent | detection in liver or kidneys at the end of the experiment (Pharmacokinetics in rats; rats): no CB3804 could be detected | Kidney level (Pharmacokinetics in rats; individual rats): < 0.5 % dose | Liver level (Pharmacokinetics in rats; individual rats): < 0.5 % dose | Cumulative biliary excretion (Pharmacokinetics in rats; individual rats, 100 mg/kg): 80 % dose | Cumulative urinary excretion (Pharmacokinetics in rats; individual rats, 100 mg/kg): 7 % dose | dose excreted (Pharmacokinetics in rats; rat, bile, iv, 100 mg/kg, Cumulative biliary excretion, individual rats): 72% | concentration at 1 h (Pharmacokinetics in rats; rat, plasma, iv, 100 mg/kg, Plasma levels, end inf, individual rats): 274 µM | concentration at 2 h (Pharmacokinetics in rats; rat, plasma, iv, 100 mg/kg, Plasma levels, inf + 1 h, individual rats): 10 µM | concentration at 3 h (Pharmacokinetics in rats; rat, plasma, iv, 100 mg/kg, Plasma levels, inf + 2 h, individual rats): < 2 µM | concentration at 4 h (Pharmacokinetics in rats; rat, plasma, iv, 100 mg/kg, Plasma levels, inf + 3 h, individual rats): < 2 µM | concentration at 5 h (Pharmacokinetics in rats; rat, plasma, iv, 100 mg/kg, Plasma levels, inf + 4 h, individual rats): < 2 µM | concentration at 0.5 h (Pharmacokinetics in rats; rat, plasma, iv, 100 mg/kg, Plasma levels, mid inf, individual rats): 275 µM | dose excreted (Pharmacokinetics in rats; rat, urine, iv, 100 mg/kg, Cumulative urinary excretion, individual rats): 11% | concentration (Pharmacokinetics in rats; end inf, individual rats, 100 mg/kg, 60 min): 256 µM | concentration (Pharmacokinetics in rats; inf + 1 h, individual rats, 120 min, 100 mg/kg, 120 min): 19 µM | concentration (Pharmacokinetics in rats; inf + 2 h, individual rats, 180 min): < 2 µM | concentration (Pharmacokinetics in rats; inf + 3 h, individual rats, 240 min): < 2 µM | concentration (Pharmacokinetics in rats; inf + 4 h, individual rats, 300 min): < 2 µM | concentration (Pharmacokinetics in rats; mid inf, individual rats, 30 min, 100 mg/kg, 30 min): 258 µM | anti-tumour effectiveness (L1210 tumour; 25 mg/kg i.p. daily ×5, versus other treatments): much less effective | "cures" (survived >100 days) (L1210 tumour; 50 mg/kg i.p. daily ×5): about 65% | "cures" (survived >100 days) (L1210 tumour; 100 mg/kg i.p. daily ×5): about 80% | anti-tumour activity compared with CB3717 (L1210 tumour; in vivo): comparable anti-tumour activity | plasma levels of alanine transaminase (in words) (alanine transaminase [3]; rats): did not | Peak plasma alanine transaminase (alanine transaminase [3]; individual rats): 57 % pre treatment and 143 % pre treatment | hepatotoxicity (alanine transaminase [4]): not hepatotoxic | Cell count at 48 hours as % control (L1210 cells; [14]): 98 % control | Reversal of L1210 toxicity by thymidine (L1210 cells; [14]): reversal was complete | Cell count at 48 hours as % control (L1210 cells; compound 50 uM + 10 uM thymidine): 75 % control | bioavailability following i.p. administration [5]: satisfactory bioavailability | components in faeces which may represent metabolites [5]: two components were observed in faeces | dose excreted at 48 h ([5]; faeces, read-out: Faecal excretion of the parent compound): 15 ± 13% | dose excreted at 48 h ([5]; urine, read-out: Urinary excretion of the parent compound): 4 ± 1% | L1210/C15 ID50 (L1210/C15 cells): no inhibition | activity at 10 µM [6]: < 20% | Plasma alanine transaminase level (alanine transaminase [7]; [8]): 19 ± 3 U/L | Plasma alanine transaminase level (alanine transaminase [7]; [9]): 10 ± 6 U/L | Plasma alanine transaminase level (alanine transaminase [7]; [10]): 10 ± 4 U/L | Plasma alanine transaminase level (alanine transaminase [7]; [11]): 8 ± 3 U/L | Plasma alanine transaminase level (alanine transaminase [7]; [12]): 16 ± 3 U/L | Plasma alanine transaminase level (alanine transaminase [7]; [13]): 16 ± 2 U/L | Levels of alanine transaminase (in words) (alanine transaminase [7]; mice i.p., normal range 5-25U/l): within the normal range | hepatotoxicity (alanine transaminase [7]; mice, at the doses studied): not hepatotoxic
